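Method: 48-hour compound exposure of cells in 96-well plates, five concentrations, linear interpolation of endpoints. At the GI50, growth is halved.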 The source made the active and inactive calls. No stated cut-off is given here; in the data, active = GI50 up to about 1.1 µM and inactive = higher.
Tests used:
Experiment in all cases: NCI-60 cell line screen, 48 h
[1] = system: 786-0
[2] = system: A498
[3] = system: A549
[4] = system: ACHN
[5] = system: BT-549
[6] = system: CAKI-1
[7] = system: CCRF-CEM
[8] = system: COLO 205
[9] = system: DLD-1
[10] = system: DMS-114
[11] = system: DMS-273
[12] = system: DU-145
[13] = system: EKVX
[14] = system: HCC 2998
[15] = system: HCT-116
[16] = system: HCT-15
[17] = system: HL-60
[18] = system: HOP-18
[19] = system: HOP-62
[20] = system: HT-29
[21] = system: Hs-578T
[22] = system: IGROV-1
[23] = system: K562
[24] = system: KM-20L2
[25] = system: KM12
[26] = system: LOX IMVI
[27] = system: M14
[28] = system: M19-MEL
[29] = system: MCF7
[30] = system: MDA-MB-231
[31] = system: MDA-MB-435
[32] = system: MDA-N
[33] = system: Malme-3M
[34] = system: NCI-H226
[35] = system: NCI-H23
[36] = system: NCI-H460
[37] = system: NCI-H522
[38] = system: OVCAR-3
[39] = system: OVCAR-5
[40] = system: OVCAR-8
[41] = system: PC-3
[42] = system: RPMI-8226
[43] = system: RXF 393
[44] = system: SF-268
[45] = system: SF-295
[46] = system: SF-539
[47] = system: SK-MEL-28
[48] = system: SK-MEL-2
[49] = system: SK-MEL-5
[50] = system: SK-OV-3
[51] = system: SN12C
[52] = system: SNB-19
[53] = system: SNB-75
[54] = system: SNB-78
[55] = system: SW-620
[56] = system: T47D
[57] = system: TK-10
[58] = system: U-251
[59] = system: UACC-257
[60] = system: UACC-62
[61] = system: UO-31
[62] = system: XF498
[63] = system: HOP-92
[64] = system: LXFL 529
[65] = system: MOLT-4
[66] = system: OVCAR-4
[67] = system: SR

Question: What does the source list for `Cc1c(CNc2ccc(Cl)c(C(=O)NC(CC(=O)O)C(=O)O)c2)ccc2nc(N)nc(N)c12` (stereo unspecified)?
Answer: GI50 [1]: < 0.01 µM (active); GI50 [2]: 1.52 µM (inactive); GI50 [3]: 1.33 µM (inactive); GI50 [4]: 0.0262 µM (active); GI50 [5]: 33.3 µM (inactive); GI50 [6]: < 0.0311 µM (active); GI50 [7]: 0.0753 µM (active); GI50 [8]: 4.66 µM (inactive); GI50 [9]: 0.0631 µM (active); GI50 [10]: 0.038 µM (active); GI50 [11]: 0.0617 µM (active); GI50 [12]: 0.0588 µM (active); GI50 [13]: 8.15 µM (inactive); GI50 [14]: 0.256 µM (active); GI50 [15]: < 0.01 µM (active); GI50 [16]: 0.0265 µM; GI50 [17]: 2.42 µM (inactive); GI50 [18]: > 54.8 µM (inactive); GI50 [19]: 0.256 µM (active); GI50 [20]: < 0.0208 µM (active); GI50 [21]: 506 µM (inactive); GI50 [22]: 0.0715 µM (active); GI50 [23]: < 0.12 µM (active); GI50 [24]: 0.665 µM (active); GI50 [25]: 0.106 µM (active); GI50 [26]: < 0.0118 µM (active); GI50 [27]: 0.0163 µM (active); GI50 [28]: 13.7 µM (inactive); GI50 [29]: 0.499 µM (active); GI50 [30]: > 100 µM (inactive); GI50 [31]: < 0.01 µM (active); GI50 [32]: < 0.01 µM (active); GI50 [33]: 121 µM (inactive); GI50 [34]: > 100 µM (inactive); GI50 [35]: 0.142 µM (active); GI50 [36]: 0.0352 µM (active); GI50 [37]: 3.83 µM (inactive); GI50 [38]: 6.46 µM (inactive); GI50 [39]: 1.4 µM (inactive); GI50 [40]: 0.0399 µM (active); GI50 [41]: 178 µM (inactive); GI50 [42]: > 100 µM (inactive); GI50 [43]: > 39.4 µM (inactive); GI50 [44]: 0.209 µM (active); GI50 [45]: 0.126 µM (active); GI50 [46]: 2.62 µM (inactive); GI50 [47]: 10.1 µM (inactive); GI50 [48]: > 100 µM (inactive); GI50 [49]: 0.148 µM (active); GI50 [50]: 33.7 µM (inactive); GI50 [51]: 0.57 µM (active); GI50 [52]: 0.322 µM (active); GI50 [53]: > 32.3 µM (inactive); GI50 [54]: > 100 µM (inactive); GI50 [55]: < 0.0175 µM (active); GI50 [56]: > 100 µM (inactive); GI50 [57]: 5.12 µM (inactive); GI50 [58]: 0.134 µM (active); GI50 [59]: 5.55 µM (inactive); GI50 [60]: 0.0501 µM (active); GI50 [61]: 0.665 µM (active); GI50 [62]: > 100 µM (inactive)

Question: With `COc1ccc2c3ccc4c(c3n(C)c2c1)C(=O)C=CC4=O` as the molecule, how does the GI50 [1] read?
Answer: Its GI50 is 17.9 µM (inactive).

Question: And the GI50 [2]?
Answer: The GI50 was > 100 µM (inactive).

Question: What about the GI50 [3] of the same molecule?
Answer: The GI50 was > 100 µM (inactive).

Question: And the GI50 [4]?
Answer: The GI50 was 20.7 µM (inactive).

Question: What about the GI50 [7] of the same molecule?
Answer: The GI50 was 2.93 µM (inactive).

Question: And the GI50 [8]?
Answer: The GI50 was 18.8 µM (inactive).

Question: And the GI50 [9]?
Answer: Its GI50 is 15.3 µM (inactive).

Question: And the GI50 [11]?
Answer: The GI50 was 34.7 µM (inactive).

Question: What about the GI50 [13] of the same molecule?
Answer: The GI50 was 72.8 µM (inactive).

Question: And the GI50 [14]?
Answer: Its GI50 is 84.5 µM (inactive).

Question: And the GI50 [15]?
Answer: The GI50 was 19.6 µM (inactive).

Question: What about the GI50 [16] of the same molecule?
Answer: Its GI50 is 42.6 µM.

Question: And the GI50 [17]?
Answer: The GI50 was 3.84 µM (inactive).

Question: What about the GI50 [18] of the same molecule?
Answer: Its GI50 is 36.7 µM (inactive).

Question: What about the GI50 [19] of the same molecule?
Answer: The GI50 was > 100 µM (inactive).

Question: And the GI50 [63]?
Answer: The GI50 was 14.1 µM (inactive).

Question: What about the GI50 [20] of the same molecule?
Answer: Its GI50 is > 100 µM (inactive).

Question: What about the GI50 [22] of the same molecule?
Answer: Its GI50 is > 100 µM (inactive).

Question: What about the GI50 [23] of the same molecule?
Answer: Its GI50 is 5.92 µM (inactive).

Question: And the GI50 [24]?
Answer: Its GI50 is > 100 µM (inactive).

Question: What about the GI50 [64] of the same molecule?
Answer: Its GI50 is 15.2 µM (inactive).

Question: And the GI50 [27]?
Answer: The GI50 was > 100 µM (inactive).

Question: What about the GI50 [28] of the same molecule?
Answer: Its GI50 is 18.3 µM (inactive).

Question: What about the GI50 [65] of the same molecule?
Answer: The GI50 was 2.86 µM (inactive).

Question: And the GI50 [33]?
Answer: Its GI50 is 30.5 µM (inactive).

Question: And the GI50 [34]?
Answer: The GI50 was > 100 µM (inactive).

Question: What about the GI50 [35] of the same molecule?
Answer: Its GI50 is 52.1 µM (inactive).

Question: And the GI50 [37]?
Answer: The GI50 was 10.4 µM (inactive).

Question: And the GI50 [66]?
Answer: Its GI50 is 29.6 µM (inactive).

Question: And the GI50 [40]?
Answer: The GI50 was 16.9 µM (inactive).

Question: And the GI50 [42]?
Answer: Its GI50 is 6.41 µM (inactive).

Question: And the GI50 [43]?
Answer: The GI50 was 18.4 µM (inactive).

Question: What about the GI50 [44] of the same molecule?
Answer: The GI50 was 44.3 µM (inactive).

Question: And the GI50 [45]?
Answer: The GI50 was > 100 µM (inactive).

Question: What about the GI50 [46] of the same molecule?
Answer: Its GI50 is 20.8 µM (inactive).

Question: And the GI50 [47]?
Answer: Its GI50 is 84.9 µM (inactive).

Question: What about the GI50 [49] of the same molecule?
Answer: The GI50 was > 100 µM (inactive).

Question: And the GI50 [50]?
Answer: The GI50 was > 100 µM (inactive).

Question: And the GI50 [51]?
Answer: The GI50 was 40.4 µM (inactive).

Question: What about the GI50 [52] of the same molecule?
Answer: The GI50 was > 100 µM (inactive).

Question: And the GI50 [53]?
Answer: Its GI50 is > 100 µM (inactive).

Question: And the GI50 [54]?
Answer: Its GI50 is 69.2 µM (inactive).

Question: And the GI50 [67]?
Answer: Its GI50 is 2.84 µM (inactive).

Question: What about the GI50 [55] of the same molecule?
Answer: Its GI50 is 16.4 µM (inactive).

Question: And the GI50 [58]?
Answer: Its GI50 is > 100 µM (inactive).

Question: And the GI50 [59]?
Answer: The GI50 was 29.2 µM (inactive).

Question: And the GI50 [60]?
Answer: The GI50 was 40.3 µM (inactive).

Question: And the GI50 [61]?
Answer: The GI50 was 20.5 µM (inactive).

Question: What about the GI50 [62] of the same molecule?
Answer: Its GI50 is 24.4 µM (inactive).

Question: Which results are given for `CC(C)=CCCC1(C)C=Cc2c(c(C)cc3c2[nH]c2cc(O)ccc23)O1` (stereo unspecified)?
Answer: GI50 [1]: > 25 µM (inactive); GI50 [3]: > 25 µM (inactive); GI50 [4]: > 25 µM (inactive); GI50 [7]: > 25 µM (inactive); GI50 [8]: > 25 µM (inactive); GI50 [9]: > 25 µM (inactive); GI50 [10]: > 25 µM (inactive); GI50 [11]: > 25 µM (inactive); GI50 [14]: > 25 µM (inactive); GI50 [15]: > 25 µM (inactive); GI50 [16]: > 25 µM; GI50 [17]: 22.5 µM (inactive); GI50 [18]: 7.36 µM (inactive); GI50 [19]: > 25 µM (inactive); GI50 [63]: > 25 µM (inactive); GI50 [20]: > 25 µM (inactive); GI50 [22]: > 25 µM (inactive); GI50 [23]: > 25 µM (inactive); GI50 [24]: > 25 µM (inactive); GI50 [25]: > 25 µM (inactive); GI50 [26]: > 25 µM (inactive); GI50 [64]: > 25 µM (inactive); GI50 [27]: > 25 µM (inactive); GI50 [28]: > 25 µM (inactive); GI50 [65]: > 25 µM (inactive); GI50 [33]: > 25 µM (inactive); GI50 [34]: > 25 µM (inactive); GI50 [36]: > 25 µM (inactive); GI50 [37]: 6.82 µM (inactive); GI50 [38]: > 25 µM (inactive); GI50 [66]: 22.7 µM (inactive); GI50 [39]: > 25 µM (inactive); GI50 [40]: > 25 µM (inactive); GI50 [42]: > 25 µM (inactive); GI50 [43]: > 25 µM (inactive); GI50 [44]: > 25 µM (inactive); GI50 [46]: > 25 µM (inactive); GI50 [47]: > 25 µM (inactive); GI50 [48]: > 25 µM (inactive); GI50 [49]: > 25 µM (inactive); GI50 [50]: > 25 µM (inactive); GI50 [51]: > 25 µM (inactive); GI50 [52]: > 25 µM (inactive); GI50 [67]: 24 µM (inactive); GI50 [55]: > 25 µM (inactive); GI50 [57]: > 25 µM (inactive); GI50 [58]: > 25 µM (inactive); GI50 [60]: > 25 µM (inactive); GI50 [61]: > 25 µM (inactive); GI50 [62]: > 25 µM (inactive)
